{"source": "paper PMC9379584", "about": "(iScience, 2022)", "key": {"mouse islets": {"system": "mouse islets", "assay": "Glucagon secretion from mouse islets", "format": "cell-based", "details": "25 mM glucose, 1 h"}, "α2A-AR [1]": {"target": "T1, α2A-AR (Rattus norvegicus, UniProt P22909)", "T1 sequence (P22909 1-465)": "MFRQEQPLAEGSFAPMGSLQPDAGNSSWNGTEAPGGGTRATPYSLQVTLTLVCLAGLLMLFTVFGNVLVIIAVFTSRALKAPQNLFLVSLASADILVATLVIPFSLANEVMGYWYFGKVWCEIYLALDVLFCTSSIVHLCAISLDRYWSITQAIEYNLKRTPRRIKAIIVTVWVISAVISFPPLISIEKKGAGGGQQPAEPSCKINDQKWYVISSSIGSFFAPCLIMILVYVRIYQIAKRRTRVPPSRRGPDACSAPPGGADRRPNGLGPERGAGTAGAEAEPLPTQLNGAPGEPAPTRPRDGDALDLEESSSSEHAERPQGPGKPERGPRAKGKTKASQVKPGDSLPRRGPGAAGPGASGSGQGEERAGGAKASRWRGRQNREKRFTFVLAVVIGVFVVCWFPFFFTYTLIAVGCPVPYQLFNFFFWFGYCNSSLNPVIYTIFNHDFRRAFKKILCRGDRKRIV", "format": "cell-based", "details": "nanoBRET"}, "[2]": {"system": "α2A-AR KO INS-1E-derived cell line", "assay": "HTRF cAMP assay in α2A-AR KO INS-1E-derived cells", "format": "cell-based, rat"}, "D2R [3]": {"target": "T2, D2R (Homo sapiens, UniProt P14416)", "assay": "cell-based"}, "human islets [4]": {"system": "human islets", "assay": "Glucagon secretion from human islets", "format": "cell-based", "details": "25 mM glucose, 1 h"}, "α2A-AR [5]": {"system": "α2A-AR", "assay": "α2A-AR internalization", "format": "cell-based", "details": "data not shown"}, "α2A-AR [6]": {"target": "T1, α2A-AR", "format": "cell-based", "details": "nanoBRET", "remark": "listed apart in the source"}, "human islets [7]": {"system": "human islets", "assay": "Insulin secretion from human islets", "format": "cell-based", "details": "10 pM and 100 pM, versus vehicle"}, "D2R [8]": {"target": "T2, D2R", "assay": "cell-based", "details": "for EC50: nanoBRET; for Emax: HEK-293T"}, "α2A-AR [9]": {"target": "T1, α2A-AR", "assay": "cell-based", "details": "HEK-293T"}, "mouse pancreatic islets": {"system": "mouse pancreatic islets", "assay": "Glucose-stimulated insulin secretion", "format": "cell-based", "details": "for IC50: Mus musculus, Pancreatic islet, 1.5 h"}, "D2R [10]": {"target": "T2, D2R", "assay": "Radioligand competition binding, [3H]-N-methylspiperone, HEK-293 membranes"}, "[11]": {"system": "α2A-AR KO INS-1E-derived cell line", "assay": "GSIS in α2A-AR knockout INS-1E-derived cell line", "format": "cell-based, rat"}, "INS-1E cells [12]": {"system": "INS-1E cells", "assay": "Glucose-stimulated insulin secretion", "format": "cell-based, rat"}, "β1-AR": {"system": "β1-AR", "details": "ref Millan et al., 2002; cited from earlier work"}, "INS-1E cells [13]": {"system": "INS-1E cells", "assay": "HTRF cAMP assay in INS-1E cells", "format": "cell-based, rat", "details": "for Emax, inhibition of cAMP production: normalized to DA's efficacy in parental INS-1E"}, "D2R [14]": {"target": "T2, D2R", "details": "nanoBRET"}, "D2R [15]": {"target": "T2, D2R"}, "D2R [16]": {"target": "T2, D2R", "details": "cited from earlier work"}, "[17]": {"details": "EC50, Gαi2 recruitment to D2R, Gαi2"}, "[18]": {"details": "EC50, Gαi3 recruitment to D2R, Gαi3"}, "[19]": {"details": "EC50, GαoA recruitment to D2R, GαoA"}, "[20]": {"details": "percentage of recruitment relative to DA"}}, "note": "Several values for one entry are separate records, joined by “and”; a condition that tells them apart may be missing. Equal values may be shown once. Entries after “also recorded” stand apart in the source; their conditions may differ. Read-outs that look alike come from different tables or passages of the source.", "data": [{"smiles": "CC(C)C[C@H]1C(=O)N2CCC[C@H]2[C@]2(O)O[C@](NC(=O)[C@@H]3C=C4c5cccc6[nH]c(Br)c(c56)C[C@H]4N(C)C3)(C(C)C)C(=O)N12", "note": "[Bromocriptine]", "values": [{"measurement": "decrease in secreted glucagon", "setting": "mouse islets; 10 pM", "result": 26.7, "unit": "%"}, {"measurement": "decrease in secreted glucagon", "setting": "mouse islets; 100 pM", "result": 29.7, "unit": "%"}, {"measurement": "β-arrestin2 recruitment to α2A-AR", "setting": "α2A-AR [1]", "result": "does not result in measurable recruitment; also recorded: Neither bromocriptine nor DA stimulation of α2A-AR caused significant β-arrestin2 receptor recruitment"}, {"measurement": "loss of potency in decreasing cAMP by α2-AR KO", "setting": "[2]; KO versus unmodified cells", "result": "~120", "unit": "fold"}, {"measurement": "IC50", "setting": "[2]; read-out: IC50, inhibition of cAMP production, α2A-AR KO", "result": 1200, "unit": "nM"}, {"measurement": "Emax, inhibition of cAMP production", "setting": "[2]; α2A-AR KO, normalized to DA's efficacy in parental INS-1E", "result": "56.28 [5.32–107.26] % DA"}, {"measurement": "EC50", "setting": "D2R [3]", "result": 286, "unit": "nM"}, {"measurement": "Emax", "setting": "D2R [3]; read-out: Emax, β-arrestin2 recruitment to D2R", "result": 60.9, "unit": "%"}, {"measurement": "decrease in secreted glucagon", "setting": "human islets [4]; 10 pM", "result": 30.8, "unit": "%"}, {"measurement": "decrease in secreted glucagon", "setting": "human islets [4]; 100 pM", "result": 36.7, "unit": "%"}, {"measurement": "internalization of α2A-AR following stimulation", "setting": "α2A-AR [5]", "result": "no detectable internalization"}, {"measurement": "β-arrestin1 recruitment to α2A-AR", "setting": "α2A-AR [6]", "result": "negligible recruitment"}, {"measurement": "effect on insulin secretion", "setting": "human islets [7]", "result": "not significantly altered; also recorded: did not significantly alter"}, {"measurement": "EC50", "setting": "D2R [8]; EC50, Gαi1 recruitment to D2R, Gαi1", "result": 104, "unit": "nM"}, {"measurement": "EC50", "setting": "D2R [8]; [17]", "result": 21.6, "unit": "nM"}, {"measurement": "EC50", "setting": "D2R [8]; [18]", "result": 84.3, "unit": "nM"}, {"measurement": "EC50", "setting": "D2R [8]; [19]", "result": "0.0767 nM and 0.08 nM"}, {"measurement": "EC50", "setting": "D2R [8]; EC50, Gαz recruitment to D2R, Gαz", "result": 4.3, "unit": "nM"}, {"measurement": "Emax", "setting": "D2R [8]; read-out: Emax, Gαi2 recruitment to D2R, percentage of recruitment relative to DA", "result": 89.3, "unit": "%"}, {"measurement": "Emax", "setting": "D2R [8]; read-out: Emax, GαoA recruitment to D2R, percentage of recruitment relative to DA", "result": 109, "unit": "%"}, {"measurement": "Emax", "setting": "D2R [8]; read-out: Emax, GαoB recruitment to D2R, percentage of recruitment relative to DA", "result": 96.1, "unit": "%"}, {"measurement": "Emax", "setting": "D2R [8]; read-out: Emax, Gαz recruitment to D2R, percentage of recruitment relative to DA", "result": 66.5, "unit": "%"}, {"measurement": "EC50", "setting": "D2R [8]; pEC50, GαoA recruitment to D2R, GαoA", "result": 0.0759, "unit": "nM"}, {"measurement": "EC50", "setting": "D2R [8]; pEC50, GαoB recruitment to D2R, GαoB", "result": 0.269, "unit": "nM"}, {"measurement": "Emax", "setting": "α2A-AR [9]; read-out: Emax, Gαi1 recruitment to α2A-AR", "result": 15.4, "unit": "%"}, {"measurement": "Emax", "setting": "α2A-AR [9]; read-out: Emax, Gαi2 recruitment to α2A-AR", "result": 43.8, "unit": "%"}, {"measurement": "Emax", "setting": "α2A-AR [9]; read-out: Emax, Gαi3 recruitment to α2A-AR", "result": 12.7, "unit": "%"}, {"measurement": "Emax", "setting": "α2A-AR [9]; read-out: Emax, GαoA recruitment to α2A-AR", "result": 43, "unit": "%"}, {"measurement": "Emax", "setting": "α2A-AR [9]; read-out: Emax, GαoB recruitment to α2A-AR", "result": 40.3, "unit": "%"}, {"measurement": "Emax", "setting": "α2A-AR [9]; read-out: Emax, Gαz recruitment to α2A-AR", "result": 21.2, "unit": "%"}, {"measurement": "IC50", "setting": "mouse pancreatic islets; read-out: IC50, inhibition of GSIS", "result": 15.8, "unit": "nM"}, {"measurement": "IC50", "setting": "mouse pancreatic islets; read-out: pIC50, inhibition of GSIS (converted)", "result": 15.8, "unit": "nM"}, {"measurement": "effect on insulin secretion", "setting": "mouse pancreatic islets; mouse islets, picomolar concentrations", "result": "insufficient to modify insulin secretion"}, {"measurement": "Ki", "setting": "D2R [10]", "result": 43.2, "unit": "nM"}, {"measurement": "IC50", "setting": "[11]; read-out: IC50, inhibition of GSIS, α2A-AR KO INS-1E-derived cells", "result": 6.67, "unit": "nM"}, {"measurement": "reduction of efficacy of GSIS inhibition versus parental INS-1E cells", "setting": "[11]; α2A-AR KO", "result": 80.6, "unit": "%"}, {"measurement": "decrease of efficacy at reducing GSIS versus bromocriptine alone", "setting": "INS-1E cells [12]; co-treatment with sulpiride (100 nM)", "result": 66.7, "unit": "%"}, {"measurement": "reduction of efficacy of GSIS inhibition versus bromocriptine alone", "setting": "INS-1E cells [12]; co-treatment with yohimbine (100 nM)", "result": 66.5, "unit": "%"}, {"measurement": "IC50", "setting": "INS-1E cells [12]; read-out: IC50, inhibition of GSIS, INS-1E, 20 mM glucose, 90 min", "result": 14, "unit": "nM"}, {"measurement": "affinity for β1-AR, lower compared with D2R", "setting": "β1-AR", "result": "~120", "unit": "fold"}, {"measurement": "Emax, inhibition of cAMP production", "setting": "INS-1E cells [13]", "result": "35.10 [33.09–38.47] % DA"}, {"measurement": "Emax, inhibition of cAMP production", "setting": "INS-1E cells [13]; listed as bromocriptine", "result": 35.1, "unit": "% DA"}, {"measurement": "IC50", "setting": "INS-1E cells [13]; read-out: IC50, inhibition of cAMP production, forskolin 5 μM, 1 h", "result": 10.3, "unit": "nM"}, {"measurement": "β-arrestin1 recruitment to D2R", "setting": "D2R [14]", "result": "negligible recruitment"}, {"measurement": "higher potency than DA, Gαi1 recruitment to D2R", "setting": "D2R [15]; EC50 ratio versus DA", "result": 4.5, "unit": "fold"}, {"measurement": "higher potency than NE, Gαi1 recruitment to D2R", "setting": "D2R [15]; EC50 ratio versus NE", "result": 47.2, "unit": "fold"}, {"measurement": "Emax, Gαi1 recruitment to D2R", "setting": "D2R [15]; [20]", "result": "60.03 [46.83–73.23] %"}, {"measurement": "Emax, GαoA recruitment to D2R", "setting": "D2R [15]; [20]", "result": "109.13 [71.26–147.01] %"}, {"measurement": "Emax, GαoB recruitment to D2R", "setting": "D2R [15]; [20]", "result": "96.05 [65.07–127.03] %"}, {"measurement": "Emax, Gαz recruitment to D2R", "setting": "D2R [15]; [20]", "result": "66.51 [20.68–112.34] %"}]}, {"smiles": "NC[C@H](O)c1ccc(O)c(O)c1", "note": "[NE, norepinephrine]", "values": [{"measurement": "pEC50, β-arrestin2 recruitment to D2R", "setting": "D2R [16]", "result": "4.78 (16745.32) [3.62–5.93]"}, {"measurement": "β-arrestin1 recruitment to α2A-AR", "setting": "α2A-AR [6]", "result": "negligible recruitment"}, {"measurement": "EC50", "setting": "D2R [8]; [17]", "result": 25.3, "unit": "nM"}, {"measurement": "EC50", "setting": "D2R [8]; [18]", "result": 32600, "unit": "nM"}, {"measurement": "EC50", "setting": "D2R [8]; [19]", "result": 3350, "unit": "nM"}, {"measurement": "EC50", "setting": "D2R [8]; EC50, GαoB recruitment to D2R, GαoB", "result": 139, "unit": "nM"}, {"measurement": "β-arrestin1 recruitment to D2R", "setting": "D2R [14]", "result": "negligible recruitment"}]}]}
